Results taken from article PMC7708446, “^18F-meta-fluorobenzylguanidine (^18F-mFBG) to monitor changes in norepinephrine transporter expression in response to therapeutic intervention in neuroblastoma models” (Scientific Reports, 2020).
Marks after values point to notes of the source that are not given here.

System: SK-N-BE(2)C xenografts
Test: Ex vivo biodistribution (γ-counter), mice bearing SK-N-BE(2)C xenografts
Format: in vivo
Settings: SK-N-BE(2)C
Protocol: All studies were conducted in compliance with licenses issued under the UK Animals (Scientific Procedures) Act 1986 and approved by the Institute of Cancer Research Animal Welfare and Ethical Review Body (AWERB) according to the United Kingdom National Cancer Research Institute Guidelines for Animal Welfare in Cancer Research (project license PCC916B22, Animals in Science Regulation Unit, Home Office Science, London, UK)[65]. Female Nu(NCr)-Foxn1nu mice (5–7 weeks; 20–22 g) obtained from an in-house breeding colony were used in the studies. Animals were housed in a temperature-controlled facility with 12 h on–12 h off light cycle and provided water and laboratory rodent food ad libitum. Subcutaneous xenografts were generated by injection of either Kelly (5 × 10^6/0.1 mL PBS/Matrigel 30% v/v; BD Matrigel Matrix, BD Bioscience, San Jose, California, US) or SK-N-BE(2)C (1 × 10^6/0.1 mL PBS/Matrigel) into the lower flank. For the treatment studies, AZD2014 stock solution in DMSO was diluted in PEG400 to a final concentration of 2 mg/mL (10% DMSO maximum). When tumours reached ~ 100 mm^3 (calliper measurements using formula: Volume = (Width(2) × Length)/2), mice were treated daily, for a total of either 1, 3 or 7 days, by oral gavage with AZD2014 (20 or 25 mg/kg/day) or vehicle control. Mice were monitored daily for body weight or other adverse effects.
When the tumours reached approximately 100–200 mm^3, mice were anaesthetised with an isoflurane/O2 mixture (1.5–2.0% v/v) and intravenously injected with either ^18F-mFBG (~ 7.5 MBq) or ^123I-mIBG (~ 20 MBq). Mice were then imaged using an Albira PET/SPECT/CT scanner (Bruker, Coventry, UK). Whole body PET static images were acquired after 1 and 4 h post-injection (p.i.) for 10 min with an energy window of 358 to 664 keV followed by CT acquisition. Acquisition, reconstruction and image analysis were performed as described previously. Following the final scan, the mice were sacrificed and the major organs were excised, weighed and their associated radioactivity was measured using a γ-counter. Biodistribution and image quantification were expressed as a percentage of injected dose per gram of tissue (%ID/g), whereby 1 cm^3 on PET acquisitions were assumed to equal 1 g (n ≥ 3 mice ± SD).

N=C(N)NCc1cccc([18F])c1 [^18F-mFBG, ^18F-meta-fluorobenzylguanidine]
^18F-mFBG biodistribution 4 h p.i., Tumour (1 day vehicle): 2.76 ± 1.14 %ID/g
^18F-mFBG biodistribution 4 h p.i., Tumour:blood (1 day vehicle): 15.27 ± 5.32
^18F-mFBG biodistribution 4 h p.i., Tumour:muscle (1 day vehicle): 4.44 ± 0.94
^18F-mFBG biodistribution 4 h p.i., Blood (3 day vehicle): 0.18 ± 0.08 %ID/g
^18F-mFBG biodistribution 4 h p.i., Bone (3 day vehicle): 1.64 ± 0.45 %ID/g
^18F-mFBG biodistribution 4 h p.i., Brown adipose (3 day vehicle): 5.15 ± 0.78^b %ID/g
^18F-mFBG biodistribution 4 h p.i., Heart (3 day vehicle): 3.64 ± 0.89 %ID/g
^18F-mFBG biodistribution 4 h p.i., Kidney (3 day vehicle): 1.13 ± 0.47 %ID/g
^18F-mFBG biodistribution 4 h p.i., Liver (3 day vehicle): 1.96 ± 0.02 %ID/g
^18F-mFBG biodistribution 4 h p.i., Lungs (3 day vehicle): 1.15 ± 0.23 %ID/g
^18F-mFBG biodistribution 4 h p.i., Muscle (3 day vehicle): 0.53 ± 0.19 %ID/g
^18F-mFBG biodistribution 4 h p.i., Pancreas (3 day vehicle): 1.25 ± 0.51 %ID/g
^18F-mFBG biodistribution 4 h p.i., Small intestine (3 day vehicle): 5.32 ± 0.11 %ID/g
^18F-mFBG biodistribution 4 h p.i., Spleen (3 day vehicle): 2.08 ± 1.29 %ID/g
^18F-mFBG biodistribution 4 h p.i., Tumour (3 day vehicle): 2.39 ± 0.10 %ID/g
^18F-mFBG biodistribution 4 h p.i., Tumour:blood (3 day vehicle): 14.47 ± 4.61
^18F-mFBG biodistribution 4 h p.i., Tumour:muscle (3 day vehicle): 4.89 ± 1.48
^18F-mFBG biodistribution 4 h p.i., Blood (7 day AZD2014 (20 mg/kg/day)): 0.32 ± 0.14 %ID/g
^18F-mFBG biodistribution 4 h p.i., Bone (7 day AZD2014 (20 mg/kg/day)): 0.63 ± 0.54 %ID/g
^18F-mFBG biodistribution 4 h p.i., Brown adipose (7 day AZD2014 (20 mg/kg/day)): 8.08 ± 0.72 %ID/g
^18F-mFBG biodistribution 4 h p.i., Heart (7 day AZD2014 (20 mg/kg/day)): 4.17 ± 1.63 %ID/g
^18F-mFBG biodistribution 4 h p.i., Kidney (7 day AZD2014 (20 mg/kg/day)): 1.02 ± 0.15 %ID/g
^18F-mFBG biodistribution 4 h p.i., Liver (7 day AZD2014 (20 mg/kg/day)): 2.64 ± 0.46 %ID/g
^18F-mFBG biodistribution 4 h p.i., Lungs (7 day AZD2014 (20 mg/kg/day)): 1.33 ± 0.36 %ID/g
^18F-mFBG biodistribution 4 h p.i., Muscle (7 day AZD2014 (20 mg/kg/day)): 0.75 ± 0.02 %ID/g
^18F-mFBG biodistribution 4 h p.i., Pancreas (7 day AZD2014 (20 mg/kg/day)): 3.08 ± 1.80 %ID/g
^18F-mFBG biodistribution 4 h p.i., Small intestine (7 day AZD2014 (20 mg/kg/day)): 6.87 ± 1.86 %ID/g
^18F-mFBG biodistribution 4 h p.i., Spleen (7 day AZD2014 (20 mg/kg/day)): 1.64 ± 0.46 %ID/g
^18F-mFBG biodistribution 4 h p.i., Tumour (7 day AZD2014 (20 mg/kg/day)): 2.61 ± 1.19 %ID/g
^18F-mFBG biodistribution 4 h p.i., Tumour:blood (7 day AZD2014 (20 mg/kg/day)): 8.06 ± 2.57
^18F-mFBG biodistribution 4 h p.i., Tumour:muscle (7 day AZD2014 (20 mg/kg/day)): 3.50 ± 1.62
^18F-mFBG biodistribution 4 h p.i., Blood (7 day vehicle): 0.17 ± 0.06 %ID/g
^18F-mFBG biodistribution 4 h p.i., Bone (7 day vehicle): 1.13 ± 0.20 %ID/g
^18F-mFBG biodistribution 4 h p.i., Brown adipose (7 day vehicle): 6.08 ± 2.45 %ID/g
^18F-mFBG biodistribution 4 h p.i., Heart (7 day vehicle): 5.87 ± 2.80 %ID/g
^18F-mFBG biodistribution 4 h p.i., Kidney (7 day vehicle): 1.09 ± 0.16 %ID/g
^18F-mFBG biodistribution 4 h p.i., Liver (7 day vehicle): 2.15 ± 0.30 %ID/g
^18F-mFBG biodistribution 4 h p.i., Lungs (7 day vehicle): 1.86 ± 0.64 %ID/g
^18F-mFBG biodistribution 4 h p.i., Muscle (7 day vehicle): 0.67 ± 0.07 %ID/g
^18F-mFBG biodistribution 4 h p.i., Pancreas (7 day vehicle): 2.81 ± 1.72 %ID/g
^18F-mFBG biodistribution 4 h p.i., Small intestine (7 day vehicle): 6.22 ± 0.35 %ID/g
^18F-mFBG biodistribution 4 h p.i., Spleen (7 day vehicle): 1.75 ± 0.67 %ID/g
^18F-mFBG biodistribution 4 h p.i., Tumour (7 day vehicle): 2.17 ± 1.01 %ID/g
^18F-mFBG biodistribution 4 h p.i., Tumour:blood (7 day vehicle): 15.55 ± 13.55
^18F-mFBG biodistribution 4 h p.i., Tumour:muscle (7 day vehicle): 3.36 ± 1.90
